Experimental data: patent EP0089940A1, “Compositions for therapeutic or diagnostic use containing oligosaccharides” (priority 1982, dated 1983)

Columns and labels:
E.coli = assay: Disinfection: removal of bacteria from an infected surface; conditions: 0.1 percent by weight aqueous solution applied by cotton pad onto a surface infected by E.coli
Experimental: By disinfection is here primarily intended removal of bacteria from a surface, for example a wound.
A 0.1 percent by weight aqueous solution of the compound a-D-Galp-(1-3)-D-Gal is prepared and applied by means of a cotton pad onto a surface infected by E.coli.

K88 fimbriae = molecular target: T1, K88 fimbriae (Escherichia coli, UniProt P14190); assay: Inhibition of adherence of I125-labelled K88-fimbriae to brush border membranes from pig small intestine; assay type: binding, E.coli; conditions: for inhibition at 5000 µg/mL: read-out: inhibited the adherence of K88 fimbriae to the brush border membranes; for inhibited the adherence of K88 fimbriae to the brush border membranes: 0.5 ml oligosaccharide solution 5 mg/ml in PBS, 0.5 ml I125-labelled K88 fimbriae 0.5 mg/ml, 1 ml brush border membranes 2 · 10^6 cells/ml, 37°C
T1 construct: In the experiments I^125-labelled K88 fimbriae at a concentration of 0.5 mg/ml in PBS were used; made in house; host or cells: E. coli O149 K88+ (native fimbriae isolated from the bacteria)
T1 sequence (P14190 22-283 limits assumed): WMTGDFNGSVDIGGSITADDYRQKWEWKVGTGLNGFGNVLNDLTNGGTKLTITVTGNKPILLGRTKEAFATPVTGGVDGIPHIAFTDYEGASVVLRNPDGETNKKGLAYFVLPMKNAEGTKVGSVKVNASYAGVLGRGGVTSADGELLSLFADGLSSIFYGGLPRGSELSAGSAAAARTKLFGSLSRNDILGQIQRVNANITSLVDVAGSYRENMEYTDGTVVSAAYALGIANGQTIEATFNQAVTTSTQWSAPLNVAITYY
Experimental: In the experiments I^125-labelled K88 fimbriae at a concentration of 0.5 mg/ml in PBS were used. Moreover, brush border membranes prepared according to Sellwood et al at a concentration of 2 · 10^6 cells/ml in PBS were used.
Oligosaccharides tested for their inhibiting ability were dissolved in PBS to a concentration of 5 mg/ml.
In the inhibition tests 0.5 ml I125-labelled K88 fimbriae was incubated with 0.5 ml oligosaccharide solution at 37°C for 30 minutes, 1 ml of the suspension of brush border membranes being then added. After incubation for another 60 minutes at 37°C the mixture was centrifuged for 15 minutes at 600 x g, the radioactivity being then measured in the supernatant. As a control 1 ml of PBS was used.

SMILES: OC[C@H]1O[C@H](O[C@H]2[C@@H](O)[C@@H](CO)OC(O)[C@@H]2O)[C@H](O)[C@@H](O)[C@H]1O (stereo partly drawn) [α-D-Galp-(1-3)-D-Gal]
- removal of the bacterium from the surface (E.coli): effective removal
- inhibition at 5000 µg/mL (K88 fimbriae): 70%

SMILES: OC[C@H]1O[C@H](O[C@@H]2[C@H](O)[C@@H](O)C(O)O[C@@H]2CO)[C@H](O)[C@@H](O)[C@H]1O (stereo partly drawn) [α-D-Galp-(1-4)-D-Gal, reference compound]
- inhibited the adherence of K88 fimbriae to the brush border membranes (K88 fimbriae): inactive

SMILES: OC[C@H]1O[C@H](O[C@H]2[C@@H](O)[C@@H](CO)O[C@H](O[C@H]3[C@@H](O)[C@@H](CO)OC(O)[C@@H]3O)[C@@H]2O)[C@H](O)[C@@H](O)[C@H]1O (stereo partly drawn) [α-D-Galp-(1-3)-α-D-Galp-(1-3)-D-Gal]
- inhibition at 5000 µg/mL (K88 fimbriae): 79%

SMILES: OC[C@H]1O[C@H](OC[C@H]2OC(O)[C@H](O)[C@@H](O)[C@H]2O)[C@H](O)[C@@H](O)[C@H]1O (stereo partly drawn) [α-D-Galp-(1-6)-D-Gal, reference compound]
- inhibited the adherence of K88 fimbriae to the brush border membranes (K88 fimbriae): inactive

SMILES: OC[C@H]1O[C@H](O[C@H]2[C@@H](O)[C@@H](CO)O[C@H](O[C@H]3[C@@H](O)[C@@H](CO)O[C@H](O[C@H]4[C@@H](O)[C@@H](CO)OC(O)[C@@H]4O)[C@@H]3O)[C@@H]2O)[C@H](O)[C@@H](O)[C@H]1O (stereo partly drawn) [α-D-Galp-(1-3)-α-D-Galp-(1-3)-α-D-Galp-(1-3)-D--Gal]
- inhibition at 5000 µg/mL (K88 fimbriae): 73%
